Test results reported in the supplement of paper PMC10627819.

Tests used:
B. subtilis 168 [1] = assay: fitness (endpoint OD595 vs no drug) (fraction); higher = more growth
How it was run: (§1)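 Background-subtracted growth curves were the basis for fitness, taken as the optical density at entry into stationary phase over the robust mean of no-drug control wells. A cap of 1 was applied. The curves came from OD595 readings every 30 min for 14 h at 37 °C, in 384-well plates seeded at OD595 0.01 with 30 µl, or 55 µl for S. pneumoniae.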

S. aureus DSM 20231 [2] = assay: as above
How it was run: as §1

S. aureus Newman [3] = assay: as above
How it was run: as §1

B. subtilis 168 [4] = assay: Bliss interaction score (quartile over a dose matrix) (fitness difference); higher = more antagonism (negative = synergy)
How it was run: (§2)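 Fitness was defined as normalised growth: OD595 at the start of stationary phase divided by the plate's robust no-drug mean and capped at 1. Single-drug fitness was inferred from combination measurements. The Bliss score is observed fitness minus the product of the single-drug values, summarised by quartiles across technical, biological and donor/recipient replicates.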

S. aureus DSM 20231 [5] = assay: as above
How it was run: as §2

S. aureus Newman [6] = assay: as above
How it was run: as §2

S. pneumoniae D39V [7] = assay: as above
How it was run: as §2

S. pneumoniae D39V [8] = assay: fitness (endpoint OD595 vs no drug) (fraction); higher = more growth
How it was run: as §1
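Wherever Bliss interaction score (quartile over a dose matrix) is given: first quartile when negative (synergy) and third quartile when positive (antagonism).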

CC[C@H]1OC(=O)[C@H](C)[C@@H](O[C@H]2C[C@@](C)(OC)[C@@H](O)[C@H](C)O2)[C@H](C)[C@@H](O[C@@H]2O[C@H](C)C[C@H](N(C)C)[C@H]2O)[C@](C)(O)C[C@@H](C)CN(C)[C@H](C)[C@@H](O)[C@]1(C)O [Azithromycin] + CC1=C\[C@@H](O)CC(=O)Cc2nc(co2)C(=O)N2CCC=C2C(=O)O[C@H](C(C)C)[C@H](C)/C=C/C(=O)NC\C=C\1 [Virginiamycin M1]
fitness
Conditions | partner 0.0625 µg/mL | partner 0.125 µg/mL | partner 0.25 µg/mL
B. subtilis 168 [1], first compound 0.25 µg/mL | 0.911 | 0.876 | 0.97
B. subtilis 168 [1], first compound 0.5 µg/mL | 0.803 | 0.814 | 0.869
S. aureus DSM 20231 [2], first compound 0.125 µg/mL | 0.817 | 0.872 | 0.894
S. aureus DSM 20231 [2], first compound 0.25 µg/mL | 0.77 | 0.873 | 0.854
S. aureus DSM 20231 [2], first compound 0.5 µg/mL | 0.515 | 0.362 | –
S. aureus Newman [3], first compound 0.125 µg/mL | 0.912 | 0.904 | 0.912
S. aureus Newman [3], first compound 0.25 µg/mL | 0.935 | 0.913 | 0.92
S. aureus Newman [3], first compound 0.5 µg/mL | 0.744 | 0.707 | 0.722

fitness, one replicate
Conditions | first compound 0.125 µg/mL | first compound 0.25 µg/mL | first compound 0.5 µg/mL
S. aureus DSM 20231 [2], partner 0.5 µg/mL | 0.981 | 0.86 | 0.728
S. aureus DSM 20231 [2], partner 1 µg/mL | 0.791 | 0.798 | 0.505
S. aureus Newman [3], partner 0.5 µg/mL | 0.937 | 0.9 | 0.859
S. aureus Newman [3], partner 1 µg/mL | ≥ 1 | ≥ 1 | 0.89
S. aureus Newman [3], partner 2 µg/mL | 0.904 | 0.907 | 0.764

Conditions | Bliss interaction score
B. subtilis 168 [4] | 0.0627
S. aureus DSM 20231 [5] | -0.0726
S. aureus Newman [6] | 0.0851
S. pneumoniae D39V [7] | 0.0642

CC[C@H]1OC(=O)[C@H](C)[C@@H](O[C@H]2C[C@@](C)(OC)[C@@H](O)[C@H](C)O2)[C@H](C)[C@@H](O[C@@H]2O[C@H](C)C[C@H](N(C)C)[C@H]2O)[C@](C)(O)C[C@@H](C)CN(C)[C@H](C)[C@@H](O)[C@]1(C)O [Azithromycin] + CCC[C@@H]1C[C@@H](C(=O)N[C@@H]([C@H]2O[C@H](SC)[C@H](O)[C@@H](O)[C@H]2O)[C@H](C)Cl)N(C)C1 [Clindamycin]
fitness
Conditions | first compound 0.125 µg/mL | first compound 0.25 µg/mL | first compound 0.5 µg/mL | first compound 1 µg/mL
B. subtilis 168 [1], partner 0.0625 µg/mL | – | 0.632 | 0.554 | –
B. subtilis 168 [1], partner 0.125 µg/mL | – | 0.388 | 0.379 | –
B. subtilis 168 [1], partner 0.25 µg/mL | – | 0.367 | 0.299 | 0.0793
S. aureus DSM 20231 [2], partner 0.0312 µg/mL | – | – | 0.142 | –
S. aureus DSM 20231 [2], partner 0.0625 µg/mL | – | – | 0.0702 | –
S. aureus DSM 20231 [2], partner 0.125 µg/mL | 0.0728 | 0.0466 | 0.0384 | –
S. aureus Newman [3], partner 0.0312 µg/mL | 0.693 | – | 0.481 | –
S. aureus Newman [3], partner 0.125 µg/mL | – | 0.113 | 0.0923 | –

fitness, B. subtilis 168 [1], one replicate
Conditions | first compound 0.5 µg/mL | first compound 1 µg/mL | first compound 2 µg/mL
partner 0.0039 µg/mL | 0.945 | 0.922 | 0.516
partner 0.0078 µg/mL | 0.84 | 0.776 | 0.186
partner 0.0156 µg/mL | 0.776 | 0.715 | 0.23

Conditions | Bliss interaction score
B. subtilis 168 [4] | 0.109
S. aureus DSM 20231 [5] | -0.0395
S. aureus Newman [6] | -0.0621
S. pneumoniae D39V [7] | 0.0737

Cc1onc(-c2ccccc2)c1C(=O)N[C@@H]1C(=O)N2[C@@H]1SC(C)(C)[C@@H]2C(=O)O [Oxacillin] + CN[C@H](CC(C)C)C(=O)N[C@H]1C(=O)N[C@@H](CC(N)=O)C(=O)N[C@H]2C(=O)N[C@H]3C(=O)N[C@H](C(=O)N[C@H](C(=O)O)c4cc(O)cc(O)c4-c4cc3ccc4O)[C@H](O)c3ccc(c(Cl)c3)Oc3cc2cc(c3O[C@@H]2O[C@H](CO)[C@@H](O)[C@H](O)[C@H]2O[C@H]2C[C@](C)(N)[C@H](O)[C@H](C)O2)Oc2ccc(cc2Cl)[C@H]1O [Vancomycin]
Conditions | fitness
S. aureus DSM 20231 [2], first compound 0.0156 µg/mL, partner 0.1875 µg/mL | 0.776
S. aureus DSM 20231 [2], first compound 0.0156 µg/mL, partner 0.375 µg/mL | 0.867
S. aureus DSM 20231 [2], first compound 0.0156 µg/mL, partner 0.75 µg/mL | 0.81
S. aureus DSM 20231 [2], first compound 0.0312 µg/mL, partner 0.1875 µg/mL | 0.641
S. aureus DSM 20231 [2], first compound 0.0312 µg/mL, partner 0.375 µg/mL | 0.73
S. aureus DSM 20231 [2], first compound 0.0312 µg/mL, partner 0.75 µg/mL | 0.679
S. aureus DSM 20231 [2], first compound 0.0625 µg/mL, partner 0.1875 µg/mL | 0.519
S. aureus DSM 20231 [2], first compound 0.0625 µg/mL, partner 0.375 µg/mL | 0.516
S. aureus DSM 20231 [2], first compound 0.0625 µg/mL, partner 0.75 µg/mL | 0.564
S. aureus Newman [3], first compound 0.0156 µg/mL, partner 0.1875 µg/mL | 0.785
S. aureus Newman [3], first compound 0.0156 µg/mL, partner 0.375 µg/mL | 0.756
S. aureus Newman [3], first compound 0.0312 µg/mL, partner 0.1875 µg/mL | 0.715
S. aureus Newman [3], first compound 0.0312 µg/mL, partner 0.375 µg/mL | 0.724
S. aureus Newman [3], first compound 0.0312 µg/mL, partner 0.75 µg/mL | 0.712
S. aureus Newman [3], first compound 0.0625 µg/mL, partner 0.1875 µg/mL | 0.652
S. aureus Newman [3], first compound 0.0625 µg/mL, partner 0.375 µg/mL | 0.637
S. pneumoniae D39V [8], first compound 0.01 µg/mL, partner 0.03125 µg/mL | 0.988
S. pneumoniae D39V [8], first compound 0.01 µg/mL, partner 0.0625 µg/mL | 0.906
S. pneumoniae D39V [8], first compound 0.01 µg/mL, partner 0.25 µg/mL | 0.243
S. pneumoniae D39V [8], first compound 0.01 µg/mL, partner 0.5 µg/mL | 0.0401
S. pneumoniae D39V [8], first compound 0.02 µg/mL, partner 0.03125 µg/mL | 0.859
S. pneumoniae D39V [8], first compound 0.02 µg/mL, partner 0.0625 µg/mL | 0.734
S. pneumoniae D39V [8], first compound 0.02 µg/mL, partner 0.25 µg/mL | 0.149
S. pneumoniae D39V [8], first compound 0.02 µg/mL, partner 0.5 µg/mL | 0.0421
S. pneumoniae D39V [8], first compound 0.04 µg/mL, partner 0.03125 µg/mL | 0.271
S. pneumoniae D39V [8], first compound 0.04 µg/mL, partner 0.0625 µg/mL | 0.18
S. pneumoniae D39V [8], first compound 0.04 µg/mL, partner 0.125 µg/mL | 0.108
S. pneumoniae D39V [8], first compound 0.04 µg/mL, partner 0.25 µg/mL | 0.101
S. pneumoniae D39V [8], first compound 0.04 µg/mL, partner 0.5 µg/mL | 0.056

Conditions | Bliss interaction score
B. subtilis 168 [4] | -0.0574
S. aureus DSM 20231 [5] | -0.0751
S. aureus Newman [6] | -0.0696
S. pneumoniae D39V [7] | -0.302
